Target: cdk2/cyclin A (Homo sapiens, UniProt P24941)
Assay: Inhibition assay of cdk2/Cyclin A activity (SPA)
Assay type: biochemical
Conditions: tested against cdk2/cyclin A; read-out: inhibitory activity, expressed as IC50
Source text: When the number of compounds to be tested became consistent, the need for a fast and homogeneous screening assay was raised. Thus a method of assay based on the use of the SPA technology (Amersham Pharmacia Biotech) was set up. The assay consists of the transfer of radioactivity labelled phosphate moiety by the kinase to a biotinylated substrate. The resulting 33P-labelled biotinylated product is allowed to bind to streptavidin-coated SPA beads (biotin capacity 130 pmol/mg), and light emitted was measured in a scintillation counter.
Inhibition Assay of cdk2/Cyclin A Activity
Kinase reaction: 4 microM in house biotinylated histone H1 (Sigma # H-5505) substrate, 10 microM ATP (0.1 microCi P^33gamma-ATP), 4.2 ng cdk2/Cyclin A complex, inhibitor in a final volume of 30 microl buffer (TRIS HCl 10 mM pH 7.5, MgCl2 10 mM, DTT 7.5 mM+0.2 mg/ml BSA) were added to each well of a 96 U bottom. […]
After 20 min. incubation for substrate capture, 100 microl 5M CsCl were added to allow statification of beads to the top of the plate and let stand 4 hours before radioactivity counting in the Top-Count instrument
IC50 determination: inhibitors were tested at different concentrations ranging from 0.0015 to 10 microM. Experimental data were analyzed by the computer program GraphPad Prizm using the four parameter logistic equation: […]

IC50 [nM] | Compound
11 | CC(=O)Nc1ccc([C@H](C)C(=O)Nc2ncc(C(C)C)s2)cc1 [(2S)-2-[4-(acetylamino)phenyl]-N-(5-isopropyl-1,3-thiazol-2-yl)propanamide]
110 | CC(=O)Nc1ccc(CC(=O)Nc2ncc(C(C)C)s2)cc1 [N-(5-isopropyl-1,3-thiazol-2-yl)-2-[4-(acetylamino)phenyl]acetamide]

— US20040235919A1, “Phenylacetamido-thiazole derivatives, process for the preparation and their use as antitumor agents” (priority 2001, published 2004)
